In patent publication US9512169B2, “3-substituted estra-1,3,5(10),16-tetraene derivatives, methods for the production thereof, pharmaceutical preparations containing same, and use thereof for the production of medicaments” (BAYER PHARMA AKTIENGESELLSCHAFT, priority 2012, dated 2016):
Where “and” joins values, the source holds several entries; their conditions need not be identical. Identical values can stand only once.

Tests used:
AKR1C3 [1] = target: T1, AKR1C3 (Homo sapiens (Human), UniProt P42330); assay: AKR1C3 inhibition in a cell-based system (HEK293 cells transfected with AKR1C3 expression plasmid, coumberol fluorescence); conditions: HEK293 cells transfected with AKR1C3, incubation overnight; repeated lines = independent determinations; read-out: Cellular AKR1C3 inhibition IC50
Method: The inhibition of AKR1C3 by the substances described in the present invention was measured in a cell-based assay using […] as substrate for the AKR1C3 (Halim, M., Yee, D. J., and Sames, D., J. AM. CHEM. SOC. 130, 14123-14128 (2008) and Yee, D. J., Balsanek, V., Bauman, D. R., Penning, T. M., and Sames, D., Proc. Natl. Acad. Sci. USA 103, 13304-13309 (2006)) (cf. Example 20).
The cell system used were HEK293 cells (ATCC, USA) (cell culture medium: DMEM, 1.5 g glucose, 10% FCS, PSG). The cells were transfected in an AKR1C3 expression plasmid (pCMV6-AC-AKR1C3, GenBank Accession No. NM_003739.4) overnight (X-tremeGENE HP, Roche). The next morning, the cells were sown in black 96well cell culture plates at a cell density of 40000 cells/well (Greiner Bio-One, Frickenhausen, Germany). After 7 h, the cells were incubated with the test substances (dissolved in 100× concentration in DMSO, final concentration between 10^−11M and 10^−5M) and […] (dissolved in cell culture medium, final concentration 5×10^−6M) overnight. The next morning, the fluorescence of coumberol was measured at 535 nm (excitation at 355 nm) using a suitable measuring instrument (Mithras, from Berthold). The fluorescence intensity was used as a measure of the amount of coumberol formed and thus of the enzyme activity of AKR1C3. The data were normalized (transfected cells without inhibitor, only DMSO=0% inhibition; transfected cells, 10 μM inhibitor EM-1404 [F. Labrie et al. U.S. Pat. No. 6,541,463, 2003]=100% inhibition), and the IC50 values were calculated using a 4-parameter fit.
In the cell-based assay described above, the pharmacological substances claimed were examined for their inhibitory activity on the AKR1C3 enzyme (see Table 2).

AKR1C3 [2] = target: T1, AKR1C3; assay: AKR1C3 enzyme inhibition assay (Coumberone to Coumberol fluorescence); assay type: biochemical; conditions: recombinant human AKR1C3, 15 min pre-incubation, 90 min at 22° C.; repeated lines = two experimental determinations
Method: The AKR1C3-inhibitory activity of the substances of the present invention was measured in the AKR1C3 assay described in the paragraphs below.
Essentially, the enzyme activity is measured by quantification of the Coumberol from Coumberone (Halim, M., Yee, D. J., and Sames, D., J. AM. CHEM. SOC. 130, 14123-14128 (2008) and Yee, D. J., Balsanek, V., Bauman, D. R., Penning, T. M., and Sames, D., Proc. Natl. Acad. Sci. USA 103, 13304-13309 (2006)). In this test, the increase of the highly fluorescent Coumberol by NADPH- (nicotinamide adenine dinucleotide phosphate)-dependent reduction of the non-fluorescent Coumberone by AKR1C3 can be determined.
The enzyme used was recombinant human AKR1C3 (Aldo-keto reductase family 1 member C3) (GenBank Accession No. NM_003739). This was expressed in E. coli as GST (glutathione S transferase) fusion protein and purified by glutathione Sepharose affinity chromatography. The GST was removed by digestion with thrombin and subsequent size exclusion chromatography (Dufort, I., Rheault, P., Huang, X F., Soucy, P., and Luu-The, V., Endocrinology 140, 568-574 (1999)).
For the assay, 50 nl of a 100-fold concentrated solution of the test substance in DMSO were pipetted into a black low-volume 384-well microtiter plate (Greiner Bio-One, Frickenhausen, Germany), 2.0 μl of a solution of AKR1C3 in assay buffer [50 mM potassium phosphate buffer pH 7, 1 mM DTT, 0.0022% (w/v) Pluronic F-127, 0.01% BSA (w/v) and protease inhibitor cocktail (Complete, EDTA-free Protease Inhibitor Cocktail from Roche)] were added and the mixture was incubated for 15 min to allow pre-binding of the substances to the enzyme prior to the enzyme reaction. The enzyme reaction was then started by addition of 3 μl of a solution of NADPH (16.7 μM→final concentration in 5 μl of assay volume is 10 μM) and Coumberone (0.5 μM→final concentration in 5 μl of assay volume is 0.3 μM) in assay buffer, and the resulting mixture was incubated at 22° C. for the reaction time of 90 min. The concentration of the AKR1C3 was adapted to the respective activity of the enzyme preparation and adjusted such that the assay was carried out in the linear range. Typical concentrations were in the region of 1 nM. The reaction was stopped by addition of 5 μl of a stop solution consisting of the inhibitor EM-1404 [F. Labrie et al. U.S. Pat. No. 6,541,463, 2003] (2 μM→final concentration in […] is 1 μM). The fluorescence of the Coumberole was then measured at 520 nm (excitation at 380 nm) using a suitable measuring instrument (Pherastar from BMG Labtechnologies). The intensity of the fluorescence was used as a measure of the amount of Coumberole formed and thus of the enzyme activity of AKR1C3. The data were normalized (enzyme reaction without inhibitor=0% inhibition; all other assay components, but no enzyme=100% inhibition).
As described, the pharmacological substances claimed were examined for their inhibitory activity on the AKR1C3 enzyme (see Table 1). The compounds claimed show a strong inhibition of AKR1C3 in vitro (IC50 values <200 nM) and in most cases even IC50 values <50 nM.

AKR1C3 [3] = target: T1, AKR1C3; assay: AKR1C3 binding by isothermal titration calorimetry; design: exothermal binding enthalpy: unit not given here; conditions: ITC, 25° C., PBS buffer
Method: Binding of Example compound 1 to the AKR1C3 enzyme was measured by isothermal titration calorimetry. The degree of affinity of a given compound can be stated using the dissociation constant (KD value). Human AKR1C3 enzyme was prepared as described in Example 20. For ITC experiments, human AKR1C3 protein was transferred by gel permeation into a PBS buffer consisting of 137 mM NaCl, 2.7 mM KCl, 10 mM Na2HPO4, 2 mM KH2PO4 and 1 mM tris(2-carboxyethyl)phosphine hydrochloride. The compounds were dissolved in 100% DMSO at a concentration of 10 mM and then diluted with PBS buffer. Isothermal titration calorimetry experiments (ITC experiments) were carried out using an ITC200 titration calorimeter (GE Healthcare, Northampton, Mass., USA) at a temperature of 25° C. The change in enthalpy resulting from the injection of the protein was determined by integration of the calorimetric signal. The data were analyzed with Origin 7.0 (GE Healthcare, Northampton, Mass., USA). Heat of dilution values were determined using the last injection of the titration in question and subtracted prior to curve fitting. The protein concentration in the injection syringe was in the range from 80 to 120 μM, and the concentration of the compound to be measured was in the range from 5 to 20 μM.

T1 sequence (P42330 whole entry): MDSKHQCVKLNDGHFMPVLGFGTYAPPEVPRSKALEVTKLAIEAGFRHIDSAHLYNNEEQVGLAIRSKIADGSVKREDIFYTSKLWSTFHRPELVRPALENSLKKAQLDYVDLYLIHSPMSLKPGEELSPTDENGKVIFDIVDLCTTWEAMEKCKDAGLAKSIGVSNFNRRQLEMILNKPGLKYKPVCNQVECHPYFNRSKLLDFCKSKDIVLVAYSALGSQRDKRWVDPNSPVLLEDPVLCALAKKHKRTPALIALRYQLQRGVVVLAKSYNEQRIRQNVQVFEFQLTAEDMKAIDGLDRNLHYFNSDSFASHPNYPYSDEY

SMILES: C[C@]12CC[C@@H]3c4ccc(CCC(=O)O)cc4CC[C@H]3[C@@H]1CC=C2c1cncc(F)c1 [Example 1, 3-[17-(5-Fluoropyridin-3-yl)estra-1,3,5(10),16-tetraen-3-yl]propanoic acid]
- IC50 (AKR1C3 [1]): 40 nM and 52 nM and 157 nM
- IC50 (AKR1C3 [2]): 8 nM and 7.6 nM
- exothermal binding enthalpy (AKR1C3 [3]): −1500
- Kd (AKR1C3 [3]; read-out: KD value (dissociation constant)): 230 nM
